In the assay the target is CFTR-mediated chloride transport in human intestinal epithelial enteroid cells (Homo sapiens, UniProt P13569). The experiment in a line: Membrane potential dye, Enteroid Assay A. As to conditions: for EC50: read-out: Ent. A EC50. Type of assay: cell-based. The procedure, abridged: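 Membrane potential dye (20 μM methyl oxonol, with 30 μM CaCCinh-A01 and 30 μM Chicago Sky Blue) loaded 25 min at room temperature into ROCK-inhibitor-seeded human enteroid cells. Chloride-free stimulation buffer triggered transport, followed by 15 min fluorescence. % Activity relative to 3 μM/3 μM/300 nM triple-combination control.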
Sequence of CFTR-mediated chloride transport in human intestinal epithelial enteroid cells (P13569 with tags, fused parts or gaps DEL508-508): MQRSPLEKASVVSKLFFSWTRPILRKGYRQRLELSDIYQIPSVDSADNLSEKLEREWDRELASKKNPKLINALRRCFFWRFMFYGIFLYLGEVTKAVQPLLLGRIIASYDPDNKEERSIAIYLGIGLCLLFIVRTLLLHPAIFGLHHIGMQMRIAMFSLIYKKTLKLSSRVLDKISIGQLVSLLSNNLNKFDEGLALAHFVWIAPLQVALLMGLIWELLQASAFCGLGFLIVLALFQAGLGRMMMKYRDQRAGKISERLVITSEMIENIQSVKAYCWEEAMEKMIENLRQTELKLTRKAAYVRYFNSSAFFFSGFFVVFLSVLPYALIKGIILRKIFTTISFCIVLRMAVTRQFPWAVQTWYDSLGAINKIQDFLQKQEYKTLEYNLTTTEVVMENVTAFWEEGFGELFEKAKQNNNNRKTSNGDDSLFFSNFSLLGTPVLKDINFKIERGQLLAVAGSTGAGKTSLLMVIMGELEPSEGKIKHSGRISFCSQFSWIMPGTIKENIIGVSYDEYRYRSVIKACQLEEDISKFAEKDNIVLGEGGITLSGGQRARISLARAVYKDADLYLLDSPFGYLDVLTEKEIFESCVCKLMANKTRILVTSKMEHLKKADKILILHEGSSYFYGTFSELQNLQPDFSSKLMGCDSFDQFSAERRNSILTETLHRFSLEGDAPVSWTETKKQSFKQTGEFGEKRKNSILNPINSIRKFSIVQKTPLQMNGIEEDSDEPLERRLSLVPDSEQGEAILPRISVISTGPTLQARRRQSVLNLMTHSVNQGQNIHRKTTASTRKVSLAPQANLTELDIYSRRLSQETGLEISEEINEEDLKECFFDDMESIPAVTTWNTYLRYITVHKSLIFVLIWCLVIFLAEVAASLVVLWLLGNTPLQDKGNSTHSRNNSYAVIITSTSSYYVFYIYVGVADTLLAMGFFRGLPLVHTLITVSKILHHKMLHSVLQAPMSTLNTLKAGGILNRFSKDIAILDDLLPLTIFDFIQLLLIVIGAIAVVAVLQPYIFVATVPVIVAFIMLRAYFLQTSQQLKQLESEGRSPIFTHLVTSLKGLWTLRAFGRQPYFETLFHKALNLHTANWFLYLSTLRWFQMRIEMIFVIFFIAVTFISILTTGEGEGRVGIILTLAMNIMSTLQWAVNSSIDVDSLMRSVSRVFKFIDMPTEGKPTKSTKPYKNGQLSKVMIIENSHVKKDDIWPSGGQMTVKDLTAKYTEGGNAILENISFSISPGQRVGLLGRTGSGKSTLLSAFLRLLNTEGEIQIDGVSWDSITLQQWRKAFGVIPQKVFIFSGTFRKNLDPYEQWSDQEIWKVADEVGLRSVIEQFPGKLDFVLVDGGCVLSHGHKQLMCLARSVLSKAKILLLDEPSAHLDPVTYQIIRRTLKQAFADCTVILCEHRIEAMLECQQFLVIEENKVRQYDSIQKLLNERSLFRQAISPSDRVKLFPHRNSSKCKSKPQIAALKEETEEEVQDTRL

Where [1] appears, read: enteroid cells incubated with test compound 18-24 hours, acute 10 μM forskolin and 300 nM N-[2,4-bis(1,1-dimethylethyl)-5-hydroxyphenyl]-1,4-dihydro-4-oxoquinoline-3-carboxamide.
[2] abbreviates: percentage of chloride transport of triple combination control (3 μM N-[(6-amino-2-pyridyl)sulfonyl]-6-(3-fluoro-5-isobutoxy-phenyl)-2-[(4S)-2,2,4-trimethylpyrrolidin-1-yl]pyridine-3-carboxamide based).

The record followed here is patent publication US20240018161A1, “MODULATORS OF CYSTIC FIBROSIS TRANSMEMBRANE CONDUCTANCE REGULATOR” (VERTEX PHARMACEUTICALS INCORPORATED, priority 2020, published 2024).

Like-named read-outs stand apart in the source and are kept apart here.

One may read the EC50 as the concentration giving half of the maximal effect. Turning to `Cc1cccc(C)c1-c1cc2nc(n1)NS(=O)(=O)c1cccc(c1)C(=O)N1C[C@@H](CN(C3CCC(F)(F)CC3)C[C@H]1CC(C)C)O2` [Compound 142], where the note is “Enteroid Assay A”, the “Ent. A Max Activity (%)” value was “+++ (+++ is >600%)” and the EC50 is less than 1000 nM.
Regarding `Cc1cccc(C)c1-c1cc2nc(n1)NS(=O)(=O)c1cccc(c1)C(=O)N1C[C@@H](CN(CCC(C)(C)C)C[C@H]1CC(C)C)O2` [Compound 143], for the setting “Enteroid Assay A”, the “Ent. A Max Activity (%)” value is “+++ (+++ is >600%)” and the EC50 was less than 1000 nM.
Take `Cc1cccc(C)c1-c1cc2nc(n1)NS(=O)(=O)c1cccc(c1)CN1C[C@@H](CN(CCC(C)(C)C)CC1=O)O2` [Compound 145]: under “Enteroid Assay A”, the “Ent. A Max Activity (%)” value was “++ (++ is 30-60%)” and the EC50 is less than 1000 nM.
Turning to `Cc1cccc(C)c1-c1cc2nc(n1)NS(=O)(=O)c1cccc(c1)C(=O)N1C[C@@H](CN(C3CCC(F)(F)CC3)C[C@@H]1C(C)C)O2` [Compound 146], where the note is “Enteroid Assay A”, the “Ent. A Max Activity (%)” value was “+++ (+++ is >600%)” and the concentration for a half-maximal effect (EC50) was less than 1000 nM.
For `Cc1cccc(C)c1-c1cc2nc(n1)NS(=O)(=O)c1cccc(c1)C(=O)N1C[C@@H](CN(C3CC4(CCCC4)C3)C[C@@H]1C(C)C)O2` [Compound 147], under “Enteroid Assay A”, the “Ent. A Max Activity (%)” value was “+++ (+++ is >600%)” and the EC50 was less than 1000 nM.
Regarding `Cc1cccc(C)c1-c1cc2nc(n1)NS(=O)(=O)c1cccc(c1)C(=O)N1C[C@@H](CN(C3CC4(CCCCC4)C3)C[C@@H]1C(C)C)O2` [Compound 148], where the note is “Enteroid Assay A”, the “Ent. A Max Activity (%)” value is listed as “+++ (+++ is >600%)” and the EC50 is less than 1000 nM.
The corresponding values for `Cc1cccc(C)c1-c1cc2nc(n1)NS(=O)(=O)c1cccc(c1)C(=O)N1C[C@@H](CN(C)C[C@@H]1C(C)C)O2` [Compound 149] are “+++ (+++ is >600%)” and less than 1000 nM.
On to `Cc1cccc(C)c1-c1cc2nc(n1)NS(=O)(=O)c1cccc(c1)C(=O)N1C[C@@H](CN(C3CC4(CCCCC4)C3)C[C@@H]1CC(C)C)O2` [Compound 150], for which, under “Enteroid Assay A”, the “Ent. A Max Activity (%)” value is recorded as “++ (++ is 30-60%)” and the concentration for a half-maximal effect (EC50) is less than 1000 nM.
For `Cc1cccc(C)c1-c1cc2nc(n1)NS(=O)(=O)c1cccc(c1)C(=O)N1C[C@@H](CN(CC(C)(C)C)C[C@@H]1CC(C)C)O2` [Compound 151], in that order: “++ (++ is 30-60%)” and less than 1000 nM.
Consider `Cc1cccc(C)c1-c1cc2nc(n1)NS(=O)(=O)c1cccc(c1)C(=O)N1C[C@@H](CN(C3CCC(F)(F)CC3)C[C@@H]1CC(C)C)O2` [Compound 152], for which, under “Enteroid Assay A”, the “Ent. A Max Activity (%)” value is reported as “++ (++ is 30-60%)” and the EC50 was less than 1000 nM.
For `Cc1cccc(C)c1-c1cc2nc(n1)NS(=O)(=O)c1cccc(c1)C(=O)N1C[C@@H](CN(CCC(C)(C)C)C[C@@H]1CC(C)C)O2` [Compound 153], in that order: “++ (++ is 30-60%)” and less than 1000 nM.
As to `Cc1cccc(C)c1-c1cc2nc(n1)NS(=O)(=O)c1cccc(c1)C(=O)N1C[C@@H](CN(CC(C)(C)C)[C@@H](CC(C)C)C1)O2` [Compound 154], for the setting “Enteroid Assay A”, the “Ent. A Max Activity (%)” value is “+++ (+++ is >600%)” and the EC50 was less than 1000 nM.
For `Cc1cccc(C)c1-c1cc2nc(n1)NS(=O)(=O)c1cccc(c1)C(=O)N1C[C@@H](CN(CCC(C)(C)C)[C@@H](CC(C)C)C1)O2` [Compound 155], in that order: “+++ (+++ is >600%)” and less than 1000 nM.
For `Cc1cccc(C)c1-c1cc2nc(n1)NS(=O)(=O)c1cccc(c1)C(=O)N1C[C@@H](CN(C3CC4(CCCC4)C3)[C@@H](CC(C)C)C1)O2` [Compound 156], in that order: “+++ (+++ is >600%)” and less than 1000 nM.
In the case of `Cc1cccc(C)c1-c1cc2nc(n1)NS(=O)(=O)c1cccc(c1)C(=O)N1CCN(CCC(C)(C)C)C[C@H](O2)[C@H]1CC(C)C` [Compound 157], under “Enteroid Assay A”, the “Ent. A Max Activity (%)” value is given as “+++ (+++ is >600%)” and the EC50 was less than 1000 nM.
For the compound `Cc1cccc(C)c1-c1cc2nc(n1)NS(=O)(=O)c1cccc(c1)C(=O)N1CCN(C3CCC(F)(F)CC3)C[C@@H](O2)[C@H]1CC(C)C` [Compound 158], the “Ent. A Max Activity (%)” value is listed as “+++ (key: +++ is >600%; ++ is 30-60%; + is <30%)”.
Take `Cc1cccc(C)c1-c1cc2nc(n1)NS(=O)(=O)c1cccc(c1)C(=O)N1CCN(CCC(C)(C)C)C[C@@H](O2)[C@H]1CC(C)C` [Compound 159]: where the note is “Enteroid Assay A”, the “Ent. A Max Activity (%)” value was “+++ (+++ is >600%)” and the EC50 was less than 1000 nM.
On to `Cc1cccc(C)c1-c1cc2nc(n1)NS(=O)(=O)c1cccc(c1)C(=O)N1CCNC[C@@H]1CO2` [Compound 161, (8R)-13-(2,6-Dimethylphenyl)-10-oxa-17λ^6-thia-3,6,14,16,23-pentaazatetracyclo[16.3.1.111,15.03,8]tricosa-1(21),11,13,15(23),18(22),19-hexaene-2,17,17-trione], for which, under setting [1], the EC50 fell in the range of 3000 to 30000 nM. In addition, under setting [2], the “Ent. A Max Activity (%)” value is given as “++ (++ is 30-60%)”.
For `Cc1cccc(C)c1-c1cc2nc(n1)NS(=O)(=O)c1cccc(c1)C(=O)N1CCN(C)C[C@@H]1CO2` [Compound 162, (8R)-13-(2,6-Dimethylphenyl)-6-methyl-10-oxa-17λ^6-thia-3,6,14,16,23-pentaazatetracyclo[16.3.1.111,15.03,8]tricosa-1(21),11,13,15(23),18(22),19-hexaene-2,17,17-trione], in that order: 3000 to 30000 nM and “++ (++ is 30-60%)”.
The corresponding values for `Cc1cccc(C)c1-c1cc2nc(n1)NS(=O)(=O)c1cccc(c1)C(=O)N1CCN(CCC3(C(F)(F)F)CC3)C[C@@H]1CO2` [Compound 163, (8R)-13-(2,6-Dimethylphenyl)-6-{2-[1-(trifluoromethyl)cyclopropyl]ethyl}-10-oxa-17λ^6-thia-3,6,14,16,23-pentaazatetracyclo[16.3.1.111,15.03,8]tricosa-1(22),11(23),12,14,18,20-hexaene-2,17,17-trione] are less than 1000 nM and “+++ (+++ is >60%)”.
For `Cc1cccc(C)c1-c1cc2nc(n1)NS(=O)(=O)c1cccc(c1)C(=O)N1CCN(Cc3ccccc3)C[C@@H]1CO2` [Compound 164, (8R)-6-Benzyl-13-(2,6-dimethylphenyl)-10-oxa-17λ^6-thia-3,6,14,16,23-pentaazatetracyclo[16.3.1.111,15.03,8]tricosa-1(21),11,13,15(23),18(22),19-hexaene-2,17,17-trione], in that order: less than 1000 nM and “+++ (+++ is >60%)”.
For the compound `Cc1cccc(C)c1-c1cc2nc(n1)NS(=O)(=O)c1cccc(c1)C(=O)N1CCN(C(C)C)C[C@@H]1CO2` [Compound 165, (8R)-13-(2,6-Dimethylphenyl)-6-(propan-2-yl)-10-oxa-17λ^6-thia-3,6,14,16,23-pentaazatetracyclo[16.3.1.111,15.03,8]tricosa-1(21),11,13,15(23),18(22),19-hexaene-2,17,17-trione], the EC50 under setting [1] lay within 3000 to 30000 nM. Moreover, the “Ent. A Max Activity (%)” value under setting [2] was “+++ (+++ is >60%)”.
Regarding `Cc1cccc(C)c1-c1cc2nc(n1)NS(=O)(=O)c1cccc(c1)C(=O)N1CCN(C(=O)NC3CCCCCC3)C[C@@H]1CO2` [Compound 166, (8R)—N-Cycloheptyl-13-(2,6-dimethylphenyl)-2,17,17-trioxo-10-oxa-17λ^6-thia-3,6,14,16,23-pentaazatetracyclo[16.3.1.111,15.03,8]tricosa-1(21),11,13,15(23),18(22),19-hexaene-6-carboxamide], under setting [1], the 50% effective concentration (EC50) was 3000 to 30000 nM. In addition, under setting [2], the “Ent. A Max Activity (%)” value is “+++ (+++ is >60%)”.
The corresponding values for `Cc1cccc(C)c1-c1cc2nc(n1)NS(=O)(=O)c1cccc(c1)C(=O)N1CCN(C(=O)N(C(C)C)C(C)C)C[C@@H]1CO2` [Compound 167, (8R)-13-(2,6-Dimethylphenyl)-2,17,17-trioxo-N,N-bis(propan-2-yl)-10-oxa-17λ^6-thia-3,6,14,16,23-pentaazatetracyclo[16.3.1.111,15.03,8]tricosa-1(21),11,13,15(23),18(22),19-hexaene-6-carboxamide] are 1000 to 3000 nM and “+++ (+++ is >60%)”.
The corresponding values for `Cc1cccc(C)c1-c1cc2nc(n1)NS(=O)(=O)c1cccc(c1)C(=O)N1CCN(C(=O)C3CCCCC3)C[C@@H]1CO2` [Compound 168, (8R)-6-Cyclohexanecarbonyl-13-(2,6-dimethylphenyl)-10-oxa-17λ^6-thia-3,6,14,16,23-pentaazatetracyclo[16.3.1.111,15.03,8]tricosa-1(21),11,13,15(23),18(22),19-hexaene-2,17,17-trione] are less than 1000 nM and “+++ (+++ is >60%)”.
Turning to `Cc1cccc(C)c1-c1cc2nc(n1)NS(=O)(=O)c1cccc(c1)C(=O)N1CCN(Cc3ccccc3)CC1CO2` (stereo not shown) [Compound 169, 6-Benzyl-13-(2,6-dimethylphenyl)-10-oxa-17λ^6-thia-3,6,14,16,23-pentaazatetracyclo[16.3.1.111,15.03,8]tricosa-1(21),11,13,15(23),18(22),19-hexaene-2,17,17-trione], the EC50 under setting [1] was less than 1000 nM. Moreover, the “Ent. A Max Activity (%)” value under setting [2] was “+++ (+++ is >60%)”.
With `Cc1cccc(C)c1-c1cc2nc(n1)NS(=O)(=O)c1cccc(c1)C(=O)N1CCNCC1C(C)O2` (stereo not shown) [Compound 172, 13-(2,6-dimethylphenyl)-9-methyl-10-oxa-17λ^6-thia-3,6,14,16,23-pentaazatetracyclo[16.3.1.111,15.03,8]tricosa-1(22),11,13,15(23),18,20-hexaene-2,17,17-trione], the “Ent. A Max Activity (%)” value under setting [2] is reported as “+ (+ is <300%)”.
